In article PMC4871627 (Journal of medicinal chemistry, 2016):

Experiments:
HIV RT polymerase = HIV RT polymerase (Human immunodeficiency virus type 1 group M subtype B, UniProt P04585); assay type: biochemical, HIV-1; conditions: RNase H with HTS-1 as substrate
HIV integrase = HIV integrase (Human immunodeficiency virus type 1 group M subtype B, UniProt P04585); assay: HIV IN strand transfer; assay type: biochemical, HIV-1; conditions: INST IC50, tested 0.13-100 µM

SMILES | SI (IC50 RT pol / IC50 RNase H) (HIV RT polymerase) | IC50 (HIV integrase)
Cc1ccc(-c2ccc(Nc3cc(=O)n(O)c(=O)[nH]3)cc2)cc1 [11b, 3-Hydroxy-6-((4'-methyl-[1,1'-biphenyl]-4-yl)amino)pyrimidine-2,4(1H,3H)-dione] | 5.7 (14) | 
COc1ccc(-c2cccc(Nc3cc(=O)n(O)c(=O)[nH]3)c2)cc1 [11j, 3-Hydroxy-6-((4'-methoxy-[1,1'-biphenyl]-3-yl)amino)pyrimidine-2,4(1H,3H)-dione] | 6.3 (32) | > 100000 nM
COc1ccc(-c2cccc(Nc3cc(=O)n(O)c(=O)[nH]3)c2)c(OC)c1 [11l, 6-((2',4'-Dimethoxy-[1,1'-biphenyl]-3-yl)amino)-3-hydroxypyrimidine-2,4(1H,3H)-dione] |  | 1200 to 1300 nM
COc1cccc(OC)c1-c1cccc(Nc2cc(=O)n(O)c(=O)[nH]2)c1 [11m, 6-((2',6'-Dimethoxy-[1,1'-biphenyl]-3-yl)amino)-3-hydroxypyrimidine-2,4(1H,3H)-dione] |  | 1200 to 1300 nM
O=c1cc(Nc2cccc(-c3ccc(F)cc3)c2)[nH]c(=O)n1O [11o, 6-((4'-Fluoro-[1,1'-biphenyl]-3-yl)amino)-3-hydroxypyrimidine-2,4(1H,3H)-dione] | 6.6 (33) | > 100000 nM
